Like-named read-outs stand apart in the source and are kept apart here.
What was measured:
[1] = system: mouse skin or heart transplant; test: Mouse skin or heart transplant models (initial experiments); assay type: in vivo
[2] = system: IL-2 proximal promoter driven-luciferase; test: IL-2 luciferase reporter assay in Jurkat T-cells (PMA/ionomycin); assay type: cell-based, human; conditions: for IC50: n=6
[3] = target: T1, mouse Kv1.3 (Mus musculus, UniProt P16390); test: Patch-clamp of heterologous mouse Kv1.3 expressed in L929 cells; assay type: cell-based
T1 construct: expressed in transfected cells; host or cells: L929 cells
T1 sequence (P16390 whole entry): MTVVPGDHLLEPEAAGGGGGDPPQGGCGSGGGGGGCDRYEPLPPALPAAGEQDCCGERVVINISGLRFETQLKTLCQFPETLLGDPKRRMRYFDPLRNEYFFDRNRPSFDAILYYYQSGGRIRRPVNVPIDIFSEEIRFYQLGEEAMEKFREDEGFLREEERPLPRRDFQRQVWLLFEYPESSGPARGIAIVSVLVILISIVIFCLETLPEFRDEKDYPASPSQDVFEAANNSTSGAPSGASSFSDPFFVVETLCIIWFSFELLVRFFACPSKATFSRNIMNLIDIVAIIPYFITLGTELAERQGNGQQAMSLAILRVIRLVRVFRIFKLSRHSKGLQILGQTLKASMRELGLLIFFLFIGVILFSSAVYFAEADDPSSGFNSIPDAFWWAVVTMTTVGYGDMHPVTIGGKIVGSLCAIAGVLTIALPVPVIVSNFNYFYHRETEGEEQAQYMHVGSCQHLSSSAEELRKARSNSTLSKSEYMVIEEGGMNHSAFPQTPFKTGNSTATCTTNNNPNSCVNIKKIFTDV
Description: Patch pipettes, pulled from glass capillaries (inner diameter 1.5 mm, Kimble products) with a horizontal puller (Sutter instruments, Modell P-97), were fire-polished, and had resistances between 2 and 4 MOhm. Patch-clamp experiments were performed in the tight-seal whole-cell configuration at room temperature (22-24° C.). High-resolution current recordings were acquired by a computer-based patch-clamp amplifier system (EPC-9, HEKA). Immediately following establishment of the whole-cell configuration, every two seconds voltage ramps of 50 ms duration spanning the voltage range of −100 to +100 mV for Jurkat T-cells and −150 to +150 mV for HEK293 were delivered from a holding potential (Vh) of −70 mV for Jurkats and 0 mV for HEK293 cells over a period of 300-600 s. […] Capacitive currents and series resistance were determined and corrected before each voltage ramp using the automatic capacitance compensation of the EPC-9. […] Kv1.3 currents in Jurkat T-cells were measured at +80 mV. Heterologously expressed Kv1.1, Kv1.2, Kv1.3, Kv1.5 and Kv3.1 were assessed at +80 mV except in Figure S7, where currents were additionally measured at the more physiological voltage of 0 mV. CRAC currents in HEK293 cells were assessed at −80 mV. […]

[4] = system: human foreskin graft in Pfp/Rag2−/− mice with human PBL; test: Human T-cell-mediated human skin graft rejection in immunodeficient mice; assay type: in vivo, mouse
From the text: Kv1.3 has been implicated in T-cell activation and has served as a molecular target for developing novel immunosuppressive agents. Given that clofazimine is already used in the clinic, albeit for a completely different indication, we wondered whether it is efficacious in animal models of organ transplantation. […] These negative results are not surprising given that Kv1.3 plays distinct roles in humans and rodents, as it has been shown that Kv1.3 is dispensable in mice due to the up-regulation of other chloride channels. […] To overcome this problem, we turned to a model of reconstituted human T-cell-mediated human skin rejection in immunodeficient mice. We thus transplanted human foreskin into Pfb-Rag2−/− mice that lack T, B and NK cells. Upon healing of the skin graft for about 7 days, a total of 100 million human peripheral blood lymphocytes from an unrelated donor were adoptively transferred into the same animals. The animals were treated orally with either DMSO (control) or clofazimine at 50 mg/kg/day for a total of 10 days (FIG. 5A). For the control group, the transplanted foreskin was rejected with a median survival time of 11 days (FIG. 5B).
The experimental procedure is similar to that described previously. Clofazimine suspension in olive oil was administered p.o. at 50 mg/kg/day in a total volume of 0.2 ml per administration.

[5] = system: IL-2 production in Jurkat T-cells; test: IL-2 secreted from stimulated Jurkat T-cells (ELISA); assay type: cell-based; conditions: Homo sapiens; PMA/thapsigargin-stimulated Jurkat T-cells, FIG. 1B, n=6
Description: Jurkat E6.1 T-cells (1×10^5 in 180 μl) were seeded into 96-well plates. Cells in each well were treated with different concentrations of clofazimine for 1 h before 1 μM ionomycin and 40 nM PMA were added. The incubation was continued for 2 days. The plates were centrifuged at 1,200×g for 5 min, and the supernatant from each well was collected followed by ELISA detection of IL-2. The primary antibody, biotinylated secondary antibody and HRP conjugated avidin were purchase from BD/Pharmingen.

CC(C)/N=c1\cc2n(-c3ccc(Cl)cc3)c3ccccc3nc-2cc1Nc1ccc(Cl)cc1 [clofazimine, Clofazimine]
beneficial effects in mouse skin or heart transplant models [1]: failed to show any beneficial effects
IC50 ([2]; Homo sapiens, Jurkat, Kv1.3 overexpression low to high, 1st curve, read-out: IC50, IL-2 luciferase reporter, Kv1.3 overexpression): 41.6 ± 8.4 nM
IC50 ([2]; Homo sapiens, Jurkat, Kv1.3 overexpression low to high, 2nd curve, read-out: IC50, IL-2 luciferase reporter, Kv1.3 overexpression): 41 ± 14.5 nM
IC50 ([2]; Homo sapiens, Jurkat, Kv1.3 overexpression low to high, 3rd curve, read-out: IC50, IL-2 luciferase reporter, Kv1.3 overexpression): 386 ± 214 nM
IC50 ([2]; Homo sapiens, Jurkat, Kv1.3 overexpression low to high, 4th curve, read-out: IC50, IL-2 luciferase reporter, Kv1.3 overexpression): 1370 ± 520 nM
IC50 ([2]; Homo sapiens, Jurkat, Kv1.3 overexpression low to high, 5th (highest) curve, read-out: IC50, IL-2 luciferase reporter, Kv1.3 overexpression): 1460 ± 630 nM
IC50 ([2]; Homo sapiens, Jurkat, PMA/ionomycin-stimulated Jurkat T-cells, FIG. 1A, read-out: IC50, IL-2 luciferase reporter): 21.8 ± 4.4 nM
IC50 ([2]; Homo sapiens, Jurkat, control EGFP-siRNA lentiviral transduced Jurkat T-cells, read-out: IC50, IL-2 luciferase reporter): 49.9 ± 13 nM
IC50 ([2]; Homo sapiens, Jurkat, shKv1.3-4 (Kv1.3 knockdown) transduced Jurkat T-cells, read-out: IC50, IL-2 luciferase reporter): 10.5 ± 2.4 nM
IC50 ([2]; Homo sapiens, Jurkat, PMA/ionomycin, FIG. 1C, read-out: IC50, IL-2 luciferase reporter): 56 ± 14.8 nM
IC50 ([2]; PMA/ionomycin-stimulated Jurkat T-cells, FIG. 1A, read-out: IC50, IL-2 luciferase reporter): 22 nM
increase in IC50 value upon Kv1.3 overexpression ([2]; highest Kv1.3 expression plasmid (2 μg)): 35 fold
decrease in IC50 values upon Kv1.3 knockdown ([2]; shKv1.3-4 vs shRNA against EGFP): ~5 fold
Hill coefficient, mouse Kv1.3 [3]: 0.5
IC50 ([3]; +80 mV): 470 nM
mean survival time of transplanted human skin ([4]; 50 mg/kg/day orally for 10 days, n=5): 35 days
effect on human T-cell-mediated skin graft rejection ([4]; immunodeficient mice): inhibits human T-cell-mediated skin graft rejection
IC50 [5]: 1100 ± 260 nM

From patent publication US8669257B2, “Phenazine derivatives and uses thereof as potassium channel modulators” (The Johns Hopkins University, priority 2007, dated 2014)
